From US8574563B2 (Bristol-Myers Squibb Company, priority 2006, dated 2013)

These molecules were tested on HCV 1b-377-neo replicon cells (assay: HCV replicon assay, HCV 1b-377-neo replicon cells (1b FRET)). Details: HCV 1b-377-neo replicon cells; HCV 1b genotype.
Format: cell-based, Hepatitis C virus genotype 1b
How it was run: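 Compounds tested in HCV genotype 1b-377-neo replicon cells with a FRET read-out. Cells resistant to a reference NS5A inhibitor through a Y2065H NS5A mutation were run alongside wild-type cells.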
With `CN(C)[C@@H](C(=O)N1CCC[C@H]1c1ncc(-c2ccc(-c3ccc(-c4cnc([C@@H]5CCCN5C(=O)CNC(=O)c5ccccc5)[nH]4)cc3)cc2)[nH]1)c1ccccc1` [Example 94-6, N-(2-((2S)-2-(5-(4′-(2-((2S)-1-((2R)-2-(dimethylamino)-2-phenylacetyl)-2-pyrrolidinyl)-1H-imidazol-5-yl)-4-biphenylyl)-1H-imidazol-2-yl)-1-pyrrolidinyl)-2-oxoethyl)benzamide] the “EC50 range against HCV 1b (Table 2, Range)” value was “C-D”.
For `COC(=O)N[C@H](C(=O)N1CCC[C@H]1c1ncc(-c2ccc(-c3ccc(-c4cnc([C@@H]5CCCN5C(=O)[C@@H](NC(=O)OC)C5CC5)[nH]4)cc3C(=O)O)cc2)[nH]1)C1CC1` [Example M116, 4,4′-bis(2-((2S)-1-((2S)-2-cyclopropyl-2-((methoxycarbonyl)amino)acetyl)-2-pyrrolidinyl)-1H-imidazol-5-yl)-2-biphenylcarboxylic acid], the “EC50 range against HCV 1b (Table 2, Range)” value was “>A”.

Same assay, conditions: HCV 1b-377-neo replicon cells; HCV 1b genotype; read-out: EC50 range against HCV 1b (Table 2, Range)
Molecule `O=C(N[C@@H](C(=O)N1CCC[C@H]1c1ncc(-c2ccc(-c3ccc(-c4cnc([C@@H]5CCCN5C(=O)[C@H](NC(=O)[C@H]5CCCO5)c5ccccc5)[nH]4)cc3)cc2)[nH]1)c1ccccc1)[C@H]1CCCO1` [Example 25-1, (2R,2′R)-N,N′-(4,4′-biphenyldiylbis(1H-imidazole-5,2-diyl(2S)-2,1-pyrrolidinediyl((1R)-2-oxo-1-phenyl-2,1-ethanediyl)))ditetrahydro-2-furancarboxamide] has an EC50 of 0.001 to 0.999 nM.

Same assay, conditions: Hepatitis C virus, HCV 1b-377-neo replicon cells; HCV 1b genotype; read-out: EC50 range against HCV 1b (Table 2, Range)
Molecule `C[C@H](NC(=O)[C@@H](c1ccccc1)N(C)C)c1ncc(-c2ccc(-c3ccc(-c4cnc([C@H](C)NC(=O)[C@@H](c5ccccc5)N(C)C)[nH]4)cn3)cc2)[nH]1` [Example 152j-24, (2R)-2-(dimethylamino)-N-((1S)-1-(5-(6-(4-(2-((1S)-1-(((2R)-2-(dimethylamino)-2-phenylacetyl)amino)ethyl)-1H-imidazol-5-yl)phenyl)-3-pyridinyl)-1H-imidazol-2-yl)ethyl)-2-phenylacetamide] has an EC50 of 0.001 to 0.999 nM.
For `COC(=O)N[C@H](C(=O)N1CC[C@@H](O)[C@H]1c1ncc(-c2ccc(-c3ccc(-c4cnc([C@@H]5CCCN5C(=O)[C@@H](NC(=O)OC)C(C)C)[nH]4)cc3)cc2)[nH]1)C(C)C` [OL-21, methyl ((1S)-1-(((2R)-3-hydroxy-2-(4-(4′-(2-((2S)-1-((2S)-2-((methoxycarbonyl)amino)-3-methylbutanoyl)-2-pyrrolidinyl)-1H-imidazol-4-yl)-4-biphenylyl)-1H-imidazol-2-yl)-1-pyrrolidinyl)carbonyl)-2-methylpropyl)carbamate], the EC50 was 0.001 to 0.999 nM.
In the case of `O=C(NC1CCCC1)N[C@@H](C(=O)N1CCC[C@H]1c1ncc(-c2ccc(-c3ccc(-c4cnc([C@@H]5CCCN5C(=O)[C@H](NC(=O)NC5CCCC5)c5ccccc5)[nH]4)cc3)cc2)[nH]1)c1ccccc1` [Example 24-4d, N′,N′′′-(4,4′-biphenyldiylbis(1H-imidazole-5,2-diyl(2S)-2,1-pyrrolidinediyl((1R)-2-oxo-1-phenyl-2,1-ethanediyl)))bis(1-cyclopentylurea)], the EC50 is reported as 0.001 to 0.999 nM.
`COC(=O)N[C@@H]1CCCC[C@@H]1C(=O)N1CCC[C@H]1c1ncc(-c2ccc(-c3ccc(-c4cnc([C@@H]5CCCN5C(=O)[C@H]5CCCC[C@H]5NC(=O)OC)[nH]4)cc3)cc2)[nH]1` [cj-141, dimethyl (4,4′-biphenyldiylbis(1H-imidazole-5,2-diyl(2S)-2,1-pyrrolidinediylcarbonyl(1R,2S)-2,1-cyclohexanediyl))biscarbamate] was tested, and the EC50 was 1000 to 10000 nM.
Molecule `COC(=O)N[C@@H](C)C(=O)N1CC[C@H](O)[C@H]1c1ncc(-c2ccc(-c3ccc(-c4cnc([C@@H]5CCCN5C(=O)[C@H](C)NC(=O)OC)[nH]4)cc3)cc2)[nH]1` [OL-20, methyl ((1S)-2-((2S)-2-(4-(4′-(2-((2R,3S)-3-hydroxy-1-(N-(methoxycarbonyl)-L-alanyl)-2-pyrrolidinyl)-1H-imidazol-4-yl)-4-biphenylyl)-1H-imidazol-2-yl)-1-pyrrolidinyl)-1-methyl-2-oxoethyl)carbamate] has an EC50 of 1 to 99 nM.
Molecule `COC(=O)N[C@H](C(=O)N1CCC[C@H]1c1ncc(-c2ccc(-c3ccc(-c4cnc([C@@H]5CCCN5C(=O)[C@@H](NC(=O)OC)C(C)C)[nH]4)cc3)cc2)[nH]1)C(C)C` [Example 24-23] has an EC50 of 0.001 to 0.999 nM.
`O=C(N[C@@H](C(=O)N1CCC[C@H]1c1ncc(-c2ccc(-c3ccc(-c4cnc([C@@H]5CCCN5C(=O)[C@@H]5CCCO5)[nH]4)cc3)cc2)[nH]1)c1ccccc1)[C@@H]1CCCO1` [Example 112, (2S)-N-((1R)-2-oxo-1-phenyl-2-((2S)-2-(5-(4′-(2-((2S)-1((2S)-tetrahydro-2-furanylcarbonyl)-2-pyrrolidinyl)-1H-imidazol-5-yl)-4-biphenylyl)-1H-imidazol-2-yl)-1-pyrrolidinyl)ethyl) tetrahydro-2-furancarboxamide] showed an EC50 of 0.001 to 0.999 nM.
Work on `COC(=O)N[C@H](C(=O)N1CCC[C@H]1c1nc(-c2ccc(-c3ccc(-c4c[nH]c([C@@H]5CCCN5C(=O)[C@@H](NC(=O)OC5CCOCC5)C(C)C)n4)cc3)cc2)c[nH]1)C(C)C` [Example F55, tetrahydro-2H-pyran-4-yl ((1S)-1-(((2S)-2-(4-(4′-(2-((2S)-1-(N-(methoxycarbonyl)-L-valyl)-2-pyrrolidinyl)-1H-imidazol-4-yl)-4-biphenylyl)-1H-imidazol-2-yl)-1-pyrrolidinyl)carbonyl)-2-methylpropyl)carbamate] yielded an EC50 of 0.001 to 0.999 nM.
`CCC(=O)N1CCC[C@H]1c1ncc(-c2ccc(-c3ccc(-c4cnc([C@@H]5CCCN5C(=O)CC)[nH]4)cc3)cc2)[nH]1` [Example 10, 5,5′-(4,4′-biphenyldiyl)bis(2-((2S)-1-propionyl-2-pyrrolidinyl)-1H-imidazole)] was tested, and the EC50 was 1 to 99 nM.
In the case of `CC[C@@H](C)[C@H](NC)C(=O)N1CCC[C@H]1c1nc(-c2ccc(-c3ccc(-c4cnc([C@@H]5CCCN5C(=O)[C@@H](NC)[C@H](C)CC)[nH]4)cc3)cc2)c[nH]1` [Example F35, (2S,3R)-N,3-dimethyl-1-((2S)-2-(4-(4′-(2-((2S)-1-((2S,3R)-3-methyl-2-(methylamino)pentanoyl)-2-pyrrolidinyl)-1H-imidazol-5-yl)-4-biphenylyl)-1H-imidazol-2-yl)-1-pyrrolidinyl)-1-oxo-2-pentanamine], the EC50 is reported as 100 to 999 nM.
`Cc1cc(-c2cnc([C@@H]3CCCN3C(=O)[C@@H](c3ccccc3)N(C)C)[nH]2)ccc1-c1ccc(-c2cnc([C@@H]3CCCN3C(=O)[C@@H](c3ccccc3)N(C)C)[nH]2)cc1C` [Example 121] showed an EC50 of 0.001 to 0.999 nM.
Molecule `COC(=O)NCC(=O)N1[C@H](c2ncc(-c3ccc(-c4ccc(-c5cnc([C@@H]6C[C@@H]7C[C@@H]7N6C(=O)CNC(=O)OC)[nH]5)cc4)cc3)[nH]2)C[C@@H]2C[C@@H]21` [Example M129, methyl (2-((1S,3S,5S)-3-(5-(4′-(2-((1S,3S,5S)-2-(((methoxycarbonyl)amino)acetyl)-2-azabicyclo[3.1.0]hex-3-yl)-1H-imidazol-5-yl)-4-biphenylyl)-1H-imidazol-2-yl)-2-azabicyclo[3.1.0]hex-2-yl)-2-oxoethyl)carbamate] has an EC50 of 1000 to 10000 nM.
Molecule `CCN(CC)[C@@H](C(=O)N1CCC[C@H]1c1ncc(-c2ccc(-c3ccc(-c4cnc([C@@H]5CCCN5C(=O)[C@H](Cc5ccccn5)NC(=O)OC)[nH]4)cc3)cc2)[nH]1)c1ccccc1` [cj-68, methyl ((1S)-2-((2S)-2-(5-(4′-(2-((2S)-1-((2R)-2-(diethylamino)-2-phenylacetyl)-2-pyrrolidinyl)-1H-imidazol-5-yl)-4-biphenylyl)-1H-imidazol-2-yl)-1-pyrrolidinyl)-2-oxo-1-(2-pyridinylmethyl)ethyl)carbamate] has an EC50 of 0.001 to 0.999 nM.
For `CN1CCN(C(C(=O)N2CCC[C@H]2c2ncc(-c3ccc(-c4ccc(-c5cnc([C@@H]6CCCN6C(=O)[C@@H]6CCCO6)[nH]5)cc4)cc3)[nH]2)c2ccccc2)CC1` (stereo partly drawn) [Example 104, 1-methyl-4-(2-oxo-1-phenyl-2-((2S)-2-(5-(4′-(2-((2S)-1-((2S)-tetrahydro-2-furanylcarbonyl)-2-pyrrolidinyl)-1H-imidazol-5-yl)-4-biphenylyl)-1H-imidazol-2-yl)-1-pyrrolidinyl)ethyl)piperazine], the EC50 was 0.001 to 0.999 nM.
`COC(=O)N[C@@H](C)C(=O)N1CCC[C@H]1c1ncc(-c2ccc(-c3ccc(-c4cnc([C@@H]5CCCN5C(=O)[C@H]5CCC[C@@H]5NC(=O)OC)[nH]4)cc3)cc2)[nH]1` [cj-118, methyl ((1S,2S)-2-(((2S)-2-(5-(4′-(2-((2S)-1-(N-(methoxycarbonyl)-L-alanyl)-2-pyrrolidinyl)-1H-imidazol-5-yl)-4-biphenylyl)-1H-imidazol-2-yl)-1-pyrrolidinyl)carbonyl)cyclopentyl)carbamate] gave an EC50 of 0.001 to 0.999 nM.
Molecule `COC(=O)N[C@@H](C(=O)N1CCC[C@H]1c1ncc(-c2ccc(-c3ccc(-c4nc([C@@H]5CCCN5C(=O)[C@H](NC(=O)OC)c5ccccc5)[nH]c4C)cc3)cc2)[nH]1)c1ccccc1` [Example E5c, methyl ((1R)-2-((2S)-2-(4-(4′-(2-((2S)-1-((2R)-2-((methoxycarbonyl)amino)-2-phenylacetyl)-2-pyrrolidinyl)-1H-imidazol-4-yl)-4-biphenylyl)-5-methyl-1H-imidazol-2-yl)-1-pyrrolidinyl)-2-oxo-1-phenylethyl)carbamate] has an EC50 of 0.001 to 0.999 nM.
Molecule `COC(=O)N[C@@H](C)C(=O)N1[C@H](c2ncc(-c3ccc(-c4ccc(-c5cnc([C@@H]6C[C@@H]7C[C@@H]7N6C(=O)[C@H](C)NC(=O)OC)[nH]5)cc4)cc3)[nH]2)C[C@@H]2C[C@@H]21` [Example M130, methyl ((1S)-2-((1S,3S,5S)-3-(5-(4′-(2-((1S,3S,5S)-2-(N-(methoxycarbonyl)-L-alanyl)-2-azabicyclo[3.1.0]hex-3-yl)-1H-imidazol-5-yl)-4-biphenylyl)-1H-imidazol-2-yl)-2-azabicyclo[3.1.0]hex-2-yl)-1-methyl-2-oxoethyl)carbamate] has an EC50 of 1 to 99 nM.
